Measured values reported in ChEMBL document CHEMBL6087386, “Radioprotective effectiveness of a novel delta-tocotrienol prodrug on mouse hematopoietic system against 60Co gamma-ray irradiation through inducing granulocyte-colony stimulating factor production” (Eur J Med Chem, 2024).
Calls of active or inactive are those of the source. The calls are words filed in the database; no cut-off is given here.

Legend:
[1] = tested on: Mus musculus; assay: Induction of G-CSF production in C57BL/6J mouse model at 100 mg/kg, sc measured for 24 hrs by ELISA analysis; type: functional, organism-based
[2] = tested on: Mus musculus; assay: Radioprotective activity in C57BL/6J mouse assessed as survival rate at 100 mg/kg, sc preincubated with compound for 24 hrs followed by total body irradiation with 8.5 Gy and measured after 20 days by Kaplan-meier plot analysis; type: functional; conditions: light or radiation study, 504 h, time 21 day
[3] = tested on: Mus musculus; assay: Radioprotective activity in C57BL/6J mouse assessed as survival rate at 100 mg/kg, sc preincubated with compound for 24 hrs followed by total body irradiation with 8.5 Gy and measured after 30 days by Kaplan-meier plot analysis; type: functional; conditions: time 31 day
[4] = Tmax in ICR mouse at 100 mg/kg, iv measured upto 24 hrs by LC-MS/MS analysis; type: ADME, organism-based; conditions: in vivo
[5] = Tmax in ICR mouse at 100 mg/kg, sc measured upto 24 hrs by LC-MS/MS analysis; type: ADME, organism-based; conditions: in vivo
[6] = Cmax in ICR mouse at 100 mg/kg, iv measured upto 24 hrs by LC-MS/MS analysis; type: ADME, organism-based; conditions: in vivo
[7] = Cmax in ICR mouse at 100 mg/kg, sc measured upto 24 hrs by LC-MS/MS analysis; type: ADME, organism-based; conditions: in vivo
[8] = Half life in ICR mouse at 100 mg/kg, iv measured upto 24 hrs by LC-MS/MS analysis; type: ADME, organism-based; conditions: in vivo
[9] = Clearance in ICR mouse at 100 mg/kg, iv measured upto 24 hrs by LC-MS/MS analysis; type: ADME, organism-based; conditions: in vivo
[10] = MRT (0 to t) in ICR mouse at 100 mg/kg, iv measured upto 24 hrs by LC-MS/MS analysis; type: ADME, organism-based; conditions: in vivo
[11] = MRT (0 to t) in ICR mouse at 100 mg/kg, sc measured upto 24 hrs by LC-MS/MS analysis; type: ADME, organism-based; conditions: in vivo
[12] = MRT (0 to infinity) in ICR mouse at 100 mg/kg, iv measured upto 24 hrs by LC-MS/MS analysis; type: ADME, organism-based; conditions: ICR, in vivo
[13] = Volume of distribution at steady state in ICR mouse at 100 mg/kg, iv measured upto 24 hrs by LC-MS/MS analysis; type: ADME, organism-based; conditions: ICR, in vivo, read-out: Vdss
[14] = Bioavailability in ICR mouse at 100 mg/kg, sc measured upto 24 hrs by LC-MS/MS analysis; type: ADME, organism-based; conditions: in vivo
[15] = tested on: Mus musculus; assay: Radioprotective activity in C57BL/6J mouse assessed as increase in WBC count at 100 mg/kg, sc preincubated with compound for 24 hrs followed by total body irradiation with 6.5 Gy and measured after 30 days; type: functional, organism-based; conditions: time 31.0 day
[16] = tested on: Mus musculus; assay: Radioprotective activity in C57BL/6J mouse assessed as increase in neutrophils at 100 mg/kg, sc preincubated with compound for 24 hrs followed by total body irradiation with 6.5 Gy and measured after 30 days; type: functional, organism-based; conditions: time 31.0 day
[17] = tested on: Mus musculus; assay: Radioprotective activity in C57BL/6J mouse assessed as increase in platelets count at 100 mg/kg, sc preincubated with compound for 24 hrs followed by total body irradiation with 6.5 Gy and measured after 30 days; type: functional, organism-based; conditions: time 31.0 day
[18] = tested on: Mus musculus; assay: Radioprotective activity in C57BL/6J mouse assessed as increase in RBC count at 100 mg/kg, sc preincubated with compound for 24 hrs followed by total body irradiation with 6.5 Gy and measured after 30 days; type: functional, organism-based; conditions: time 31.0 day
[19] = tested on: Mus musculus; assay: Radioprotective activity in C57BL/6J mouse assessed as increase in neutrophils at 100 mg/kg, sc preincubated with compound for 24 hrs followed by total body irradiation with 6.5 Gy and measured on day 7; type: functional, organism-based; conditions: time 8.0 day
[20] = tested on: Mus musculus; assay: Radioprotective activity in C57BL/6J mouse assessed as increase in platelet count at 100 mg/kg, sc preincubated with compound for 24 hrs followed by total body irradiation with 6.5 Gy and measured on day 10; type: functional, organism-based; conditions: time 11.0 day
[21] = tested on: Mus musculus; assay: Radioprotective activity in C57BL/6J mouse assessed as increase in RBC count at 100 mg/kg, sc preincubated with compound for 24 hrs followed by total body irradiation with 6.5 Gy and measured on day 14; type: functional, organism-based; conditions: time 15.0 day
[22] = tested on: Mus musculus; assay: Radioprotective activity in C57BL/6J mouse assessed as increase in number of total bone marrow cells at 100 mg/kg, sc preincubated with compound for 24 hrs followed by total body irradiation with 6.5 Gy and measured after 30 days; type: functional, organism-based; conditions: time 31.0 day
[23] = tested on: Mus musculus; assay: Radioprotective activity in C57BL/6J mouse assessed as increase in number of LK cells at 100 mg/kg, sc preincubated with compound for 24 hrs followed by total body irradiation with 6.5 Gy and measured after 30 days; type: functional, organism-based; conditions: time 31.0 day
[24] = tested on: Mus musculus; assay: Radioprotective activity in C57BL/6J mouse assessed as increase in number of LSK cells at 100 mg/kg, sc preincubated with compound for 24 hrs followed by total body irradiation with 6.5 Gy and measured after 30 days; type: functional, organism-based; conditions: time 31.0 day
[25] = tested on: Mus musculus; assay: Radioprotective activity in C57BL/6J mouse assessed as increase in long term hematopoietic stem cell frequency in LSK compartment at 100 mg/kg, sc preincubated with compound for 24 hrs followed by total body irradiation with 6.5 Gy and measured after 30 days; type: functional, organism-based; conditions: time 31.0 day
[26] = tested on: Mus musculus; assay: Radioprotective activity in C57BL/6J mouse assessed as increase in multipotent progenitor frequency in LSK compartment at 100 mg/kg, sc preincubated with compound for 24 hrs followed by total body irradiation with 6.5 Gy and measured after 30 days; type: functional, organism-based; conditions: time 31.0 day
[27] = tested on: Mus musculus; assay: Radioprotective activity in C57BL/6J mouse assessed as splenomegaly at 100 mg/kg, sc preincubated with compound for 24 hrs followed by total body irradiation with 6.5 Gy and measured after 10 days; type: functional, organism-based; conditions: time 11.0 day
[28] = tested on: Mus musculus; assay: Radioprotective activity in C57BL/6J mouse assessed as increase in spleen coefficient at 100 mg/kg, sc preincubated with compound for 24 hrs followed by total body irradiation with 6.5 Gy and measured after 10 days; type: functional, organism-based; conditions: time 11.0 day

CC(C)=CCC/C(C)=C/CC/C(C)=C/CC[C@]1(C)CCc2cc(OCCO)cc(C)c2O1
Activity [1]: Active
survival at 100 mg/kg [2]: 70%
Activity [3]: 100%
Tmax [4]: 17.3 h
Tmax [5]: 0.67 h
Cmax [6]: 8.15 ng/mL
Cmax [7]: 1.14 ng/mL
half-life [8]: 7.56 h
CL [9]: 6.3815 mL/min/kg
MRT last at 24 h [10]: 0.67 h
MRT last at 24 h [11]: 12 h
MRT inf [12]: 0.92 h
Vd [13]: 0.351 L/kg
F [14]: 8.3%
Activity [15]: Active
Activity [16]: Active
Activity [17]: Active
Activity [18]: Active
Activity [19]: Active
Activity [20]: Active
Activity [21]: Active
Activity [22]: Active
Activity [23]: Active
Activity [24]: Active
Activity [25]: Active
Activity [26]: Active
Activity [27]: Active
Activity [28]: Active
